{"source": "paper PMC6943527", "about": "“Are the Hydantoin-1,3,5-triazine 5-HT6R Ligands a Hope to a Find New Procognitive and Anti-Obesity Drug? Considerations Based on Primary In Vivo Assays and ADME-Tox Profile In Vitro” (Molecules, 2019)", "key": {"Caco-2 cells": {"tested_on": "Caco-2 cells", "test": "Caco-2 permeability assay", "format": "in vitro ADME", "protocol": "(§1) The Caco-2 (ATCC® HTB-37^TM) cell line was purchased from American Type Culture Collection (ATCC) (Manassas, VG, USA). The cells were cultivated in Dulbecco’s Modified Eagle’s Medium (DMEM) supplemented with 10% fetal bovine serum (FBS) in a humidified atmosphere of 5% CO2. The medium was changed every two days, and the cells were subcultured at 70%–80% confluence. […] The inserts were pretreated first with 50 µL of the medium for two minutes. Next, the 200 µL of cells were seeded at […] concentration per insert in apical compartment, whereas 600 µL was added to the basolateral one. […] TEER (transepithelial electrical resistance) measurements was started from 18 days after seeding by Millicell ERS-2 Volt-Ohm Meter (Merck Millipore, Burlington, MA, USA). […] Then, the monolayer was rinsed with HBSS (Hank’s balanced salt solution) and KMP-10, and the highly permeable reference CFN was added at a 10 µM concentration with the HBSS into the apical chambers. The 600 µL of HBSS was added to the basolateral compartments. Lucifer yellow (5 µM) was also added to the apical chambers as the membrane integrity marker. The plate was placed in the orbital shaker (60 rpm) for 2 h at 37 °C. The compounds’ concentrations in apical and basolateral wells were analyzed using the UPLC-MS method with IS. To confirm the membrane integrity, the fluorescence of lucifer yellow was measured in basolateral compartment by EnSpire multiplate reader (Perkin Elmer, Waltham, MA, USA).\n(§2) The apparent permeability Papp was calculated from two experiments according to the following formula [34]:Papp= dc/dt × V/(A × C0)(1) where: • dc/dt—the change in concentration in the receiving compartment over time • V—volume of the solution in the receiving compartment (mL) • A—surface area of the membrane (cm^2) • C0—the initial concentration in the donor compartment (µM)."}, "[1]": {"test": "Caco-2 permeability assay", "format": "in vitro ADME", "conditions": "human, Caco-2; 10 µM in apical chamber, 2 h, 37 °C, two experiments; read-out: Caco-2 Papp ± SD", "protocol": "as §1, §2"}, "CYP3A4": {"molecular_target": "T1, CYP3A4 (Homo sapiens, UniProt P08684)", "T1 construct": "purchased Promega (Madison, WI, USA)", "T1 sequence (P08684 whole entry, canonical isoform)": "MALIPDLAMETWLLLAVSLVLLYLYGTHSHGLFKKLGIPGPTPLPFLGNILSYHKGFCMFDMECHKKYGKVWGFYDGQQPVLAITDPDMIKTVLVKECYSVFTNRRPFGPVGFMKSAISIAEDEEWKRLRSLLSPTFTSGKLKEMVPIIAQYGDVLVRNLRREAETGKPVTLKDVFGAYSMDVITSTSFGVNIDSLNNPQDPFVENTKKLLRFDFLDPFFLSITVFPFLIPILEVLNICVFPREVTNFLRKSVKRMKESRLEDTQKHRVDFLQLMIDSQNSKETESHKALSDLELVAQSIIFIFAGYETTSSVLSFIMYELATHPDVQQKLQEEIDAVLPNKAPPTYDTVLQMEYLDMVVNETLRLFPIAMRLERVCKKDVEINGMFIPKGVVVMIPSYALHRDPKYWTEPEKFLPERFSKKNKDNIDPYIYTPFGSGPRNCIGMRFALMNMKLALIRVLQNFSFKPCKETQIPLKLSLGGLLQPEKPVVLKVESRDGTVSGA", "test": "CYP3A4 P450-Glo drug-drug interaction assay", "format": "in vitro ADME", "protocol": "(§3) The influence of triazine derivatives on two the most involved in drug metabolism CYP (cytochrome P450) isoforms CYP3A4 and CYP2D6 was also investigated.\n(§4) The study was performed using the CYP3A4 P450-Glo^TM and CYP2D6 P450-Glo^TM commercial tests provided by Promega (Madison, WI, USA). The influence of compounds on CYPs activity was tested in white polystyrene, flat-bottom Nunc^TM MicroWell^TM 96-well microplates (Thermo Scientific, Waltham, MA USA), and the bioluminescence signal was measured with a microplate reader (EnSpire) in luminescence mode, as described previously. KMP-10 and DJ-18 were tested in triplicate in the range of 0.01–25 µM for both isoforms’ P450 cytochrome. KE and QD were used as the reference compounds for CYP3A4 and CYP2D6, respectively."}, "[2]": {"set-up": "method as in PMID 30282913", "conditions": "\"conditional\" anxiety-like assay; cited from earlier work"}, "CYP2D6": {"molecular_target": "T2, CYP2D6 (Homo sapiens, UniProt P10635)", "T2 construct": "purchased Promega (Madison, WI, USA)", "T2 sequence (P10635 whole entry)": "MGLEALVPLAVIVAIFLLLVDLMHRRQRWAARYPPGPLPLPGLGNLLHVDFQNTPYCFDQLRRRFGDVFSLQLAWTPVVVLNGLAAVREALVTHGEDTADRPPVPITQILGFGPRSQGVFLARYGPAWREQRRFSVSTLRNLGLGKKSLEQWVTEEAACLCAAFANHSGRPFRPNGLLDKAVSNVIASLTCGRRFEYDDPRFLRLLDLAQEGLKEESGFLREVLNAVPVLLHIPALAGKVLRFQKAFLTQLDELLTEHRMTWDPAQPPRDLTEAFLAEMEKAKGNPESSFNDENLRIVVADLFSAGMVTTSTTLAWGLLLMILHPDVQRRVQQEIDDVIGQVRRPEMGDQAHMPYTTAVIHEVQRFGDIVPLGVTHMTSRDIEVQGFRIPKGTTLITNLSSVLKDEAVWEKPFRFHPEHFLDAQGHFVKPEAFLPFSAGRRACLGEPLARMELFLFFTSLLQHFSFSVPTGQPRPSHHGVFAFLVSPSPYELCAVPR", "test": "CYP2D6 P450-Glo drug-drug interaction assay", "format": "in vitro ADME", "conditions": "summary in comparison to SUVN-502", "protocol": "as §3, §4"}, "5-HT2A": {"molecular_target": "5-HT2A", "set-up": "method as in PMID 30282913", "conditions": "radioligand binding, average of at least two independent experiments; read-out: Ki 5-HT2A [3H]-Ketanserin; cited from earlier work"}, "[3]": {"test": "Model of excessive eating (palatable diet), 3-week administration", "format": "in vivo, male Wistar rats", "protocol": "The experiments were carried out on male Wistar rats. Their initial body weight was 210–230 g. The animals were housed in pairs in plastic cages in constant temperature facilities exposed to a light–dark cycle; water and food were available ad libitum. The control and experimental groups consisted of eight animals each. All experiments were conducted according to the guidelines of the Animal Use and Care Committee of the Jagiellonian University and were approved for realization (2013 and 2015, Poland; Permissions No 136/2013 and 258/2015).\nIn order to determine the anorectic activity of KMP-10, its effect on caloric and water intake in the model of excessive eating was assessed. Male Wistar rats were housed in pairs. Two groups of 8 rats were fed diets consisting of milk chocolate with nuts, cheese, salted peanuts, and 7% condensed milk; these rats also had access to a standard feed (Labofeed B, Morawski Manufacturer Feed, Poland) and water ad libitum for 3 weeks. The palatable control group (palatable diet + vehicle) received vehicle (1% Tween 80, i.p.), while the palatable test group (palatable diet + KMP-10 5 mg) was intraperitoneally injected with KMP-10 at the dose 5 mg/kg b.w./day dissolved in 1% Tween 80. The intakes of food and water were evaluated daily. On the 22th day, 20 min after the i.p. administration of heparin 1000 units/rat and thiopental (70 mg/kg b.w.), blood, peritoneal fat pads, liver were collected from animals.\nThe palatable diet contained 100 g of peanuts—614 kcal; 100 mL of condensed milk—131 kcal; 100 g of milk chocolate with hazelnuts—[…]; and 100 g of cheese (Greek type)—270 kcal.\nThe spontaneous activity of rats was measured on the 1st, 14th and 20th day of the treatment with a special RFID-system—TraffiCage (TSE-Systems, Germany). The animals were subcutaneously implanted with transmitter identification (RFID), which enabled the presence and time spent in different areas of the cage to be counted; the data were then grouped in a special computer program.\nTo determine the glucose or cholesterol or triglyceride levels in blood, standard enzymatic and spectrophotometric tests (Biomaxima S.A. Lublin, Poland) were used. The substrate was decomposed with enzymes that were appropriate for the relevant product, which was converted to a colored compound. Coloration was proportional to the concentration. The absorbance was measured at a wavelength of 500 nm."}, "[4]": {"conditions": "5 mg/kg b.w., vs group fed the palatable feed"}, "[5]": {"conditions": "model of excessive eating, 5 mg/kg b.w./day i.p."}, "[6]": {"conditions": "palatable diet, 5 mg/kg b.w./day i.p., 3 weeks, vs obesity control group"}}, "note": "Entries after “also recorded” stand apart in the source; their conditions may differ."}
{"compound": "CN1CCN(c2nc(N)nc(CN3C(=O)NC(C)(c4ccc5ccccc5c4)C3=O)n2)CC1", "note": "(stereo not drawn) [KMP-10, 3-((4-amino-6-(4-methylpiperazin-1-yl)-1,3,5-triazin-2-yl)methyl)-5-methyl-5-(naphthalen-2-yl)imidazolidine-2,4-dione]", "values": [{"measurement": "Caco-2 permeability classification", "setting": "Caco-2 cells; bands: Papp <2 low, 2-20 moderate, >20 × 10^−6 cm/s high", "value": "moderate permeability"}, {"measurement": "Caco-2 absorption, fold weaker than caffeine", "setting": "Caco-2 cells; vs caffeine", "value": 3, "unit": "fold"}, {"measurement": "Papp at 2 h, 10 µM", "setting": "[1]", "value": "6.27 ± 0.3", "unit": "×10⁻⁶ cm/s"}, {"measurement": "Effect on CYP3A4 activity", "setting": "CYP3A4; highest used dose of 25 µM", "value": "slight stimulation effect"}, {"measurement": "Influence on CYP3A4", "setting": "CYP3A4; summary in comparison to SUVN-502", "value": "almost no influence"}, {"measurement": "Anxiolytic-like effects in Vogel-conflict test", "setting": "[2]", "value": "confirmed"}, {"measurement": "Influence on CYP2D6", "setting": "CYP2D6", "value": "almost no influence"}, {"measurement": "Ki", "setting": "5-HT2A", "value": 17.2, "unit": "µM"}, {"measurement": "HDL cholesterol", "setting": "[3]; [4]", "value": "significantly increased; also recorded: significant increase"}, {"measurement": "Total cholesterol in blood", "setting": "[3]; [4]", "value": "significantly decreased"}, {"measurement": "Plasma glucose", "setting": "[3]; [5]", "value": "did not reduce"}, {"measurement": "Plasma triglyceride", "setting": "[3]; [5]", "value": "did not reduce"}, {"measurement": "Amount of calories consumed", "setting": "[3]; [6]", "value": "significantly reduced"}, {"measurement": "Water intake", "setting": "[3]; [6]", "value": "but not water intake"}, {"measurement": "Amount of peritoneal fat", "setting": "[3]; three-week chronic treatment, 5 mg/kg b.w./day i.p.", "value": "did not reduce"}]}
